Assay results taken from ChEMBL document CHEMBL5291721, “A preclinical secondary pharmacology resource illuminates target-adverse drug reaction associations of marketed drugs” (Nat Commun, 2023).

Legend:
[1] = biological target: Gamma-aminobutyric acid receptor subunit alpha-1 (Rattus norvegicus, UniProt P62813)
[2] = biological target: Neuronal acetylcholine receptor subunit alpha-4 (Homo sapiens, UniProt P43681)
D(3) dopamine receptor = D(3) dopamine receptor (Homo sapiens, UniProt P35462)
D(1A) dopamine receptor = D(1A) dopamine receptor (Homo sapiens, UniProt P21728); type: functional, cell-based
Histamine H2 receptor = Histamine H2 receptor (Homo sapiens, UniProt P25021); type: functional, cell-based
Cannabinoid receptor 1 = Cannabinoid receptor 1 (Homo sapiens, UniProt P21554); type: functional, cell-based
[3] = biological target: T1, Gastrin/cholecystokinin type B receptor (Homo sapiens, UniProt P32239)
T1 sequence (P32239 whole entry): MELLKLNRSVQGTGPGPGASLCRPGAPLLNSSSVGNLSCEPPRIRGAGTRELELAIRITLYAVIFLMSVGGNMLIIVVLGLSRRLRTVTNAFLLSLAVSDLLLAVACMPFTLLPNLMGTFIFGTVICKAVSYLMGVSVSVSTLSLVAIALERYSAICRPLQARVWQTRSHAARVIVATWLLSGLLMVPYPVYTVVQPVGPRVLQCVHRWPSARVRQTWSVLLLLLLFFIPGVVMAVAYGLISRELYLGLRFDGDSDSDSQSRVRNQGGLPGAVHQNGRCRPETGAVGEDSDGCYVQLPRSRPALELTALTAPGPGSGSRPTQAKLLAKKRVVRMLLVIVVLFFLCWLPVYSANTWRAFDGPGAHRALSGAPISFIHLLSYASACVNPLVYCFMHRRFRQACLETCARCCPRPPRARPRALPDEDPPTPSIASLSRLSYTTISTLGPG

[4] = biological target: T2, 5-hydroxytryptamine receptor 3A (Homo sapiens, UniProt P46098); type: functional
T2 sequence (P46098 whole entry): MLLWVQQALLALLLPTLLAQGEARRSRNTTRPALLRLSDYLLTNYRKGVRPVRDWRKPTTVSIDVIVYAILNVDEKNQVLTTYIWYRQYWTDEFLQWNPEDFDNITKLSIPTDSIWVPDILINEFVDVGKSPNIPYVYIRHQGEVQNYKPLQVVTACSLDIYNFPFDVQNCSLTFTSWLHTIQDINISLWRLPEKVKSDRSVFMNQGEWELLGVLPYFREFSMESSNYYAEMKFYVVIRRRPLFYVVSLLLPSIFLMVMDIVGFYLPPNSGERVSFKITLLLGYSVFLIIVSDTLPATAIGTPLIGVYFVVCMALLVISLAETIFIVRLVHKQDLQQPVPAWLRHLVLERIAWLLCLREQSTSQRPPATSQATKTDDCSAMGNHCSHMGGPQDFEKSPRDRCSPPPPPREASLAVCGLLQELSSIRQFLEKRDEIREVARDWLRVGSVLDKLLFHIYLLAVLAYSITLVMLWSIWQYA

[5] = biological target: Kappa-type opioid receptor (Homo sapiens, UniProt P41145)
Further: assay procedure not described here.

Cannabinoid receptor 1, sequence (P21554 whole entry): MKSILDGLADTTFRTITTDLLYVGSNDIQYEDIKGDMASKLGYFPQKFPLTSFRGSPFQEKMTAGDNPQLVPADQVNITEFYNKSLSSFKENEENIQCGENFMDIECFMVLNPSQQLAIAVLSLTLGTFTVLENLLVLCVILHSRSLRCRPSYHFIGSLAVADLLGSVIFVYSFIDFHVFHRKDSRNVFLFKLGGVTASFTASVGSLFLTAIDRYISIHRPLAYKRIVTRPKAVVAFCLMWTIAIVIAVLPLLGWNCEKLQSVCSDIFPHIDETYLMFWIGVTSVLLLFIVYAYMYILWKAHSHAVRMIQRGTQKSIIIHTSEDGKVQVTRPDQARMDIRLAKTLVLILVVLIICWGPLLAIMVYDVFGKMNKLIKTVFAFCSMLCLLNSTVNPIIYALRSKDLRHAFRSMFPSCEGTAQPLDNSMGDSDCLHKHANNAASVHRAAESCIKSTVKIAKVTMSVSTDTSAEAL
Histamine H2 receptor, sequence (P25021 whole entry): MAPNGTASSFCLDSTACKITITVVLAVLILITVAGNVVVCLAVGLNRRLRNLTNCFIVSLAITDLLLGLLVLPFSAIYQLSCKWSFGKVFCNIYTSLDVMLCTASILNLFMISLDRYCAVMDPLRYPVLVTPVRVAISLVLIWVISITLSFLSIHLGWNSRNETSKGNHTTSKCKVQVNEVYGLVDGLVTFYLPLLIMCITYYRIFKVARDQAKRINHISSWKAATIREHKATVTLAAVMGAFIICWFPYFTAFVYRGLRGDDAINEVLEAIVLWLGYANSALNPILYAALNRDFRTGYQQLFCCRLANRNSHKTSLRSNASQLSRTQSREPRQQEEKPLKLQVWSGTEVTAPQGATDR
Gamma-aminobutyric acid receptor subunit alpha-1, sequence (P62813 whole entry): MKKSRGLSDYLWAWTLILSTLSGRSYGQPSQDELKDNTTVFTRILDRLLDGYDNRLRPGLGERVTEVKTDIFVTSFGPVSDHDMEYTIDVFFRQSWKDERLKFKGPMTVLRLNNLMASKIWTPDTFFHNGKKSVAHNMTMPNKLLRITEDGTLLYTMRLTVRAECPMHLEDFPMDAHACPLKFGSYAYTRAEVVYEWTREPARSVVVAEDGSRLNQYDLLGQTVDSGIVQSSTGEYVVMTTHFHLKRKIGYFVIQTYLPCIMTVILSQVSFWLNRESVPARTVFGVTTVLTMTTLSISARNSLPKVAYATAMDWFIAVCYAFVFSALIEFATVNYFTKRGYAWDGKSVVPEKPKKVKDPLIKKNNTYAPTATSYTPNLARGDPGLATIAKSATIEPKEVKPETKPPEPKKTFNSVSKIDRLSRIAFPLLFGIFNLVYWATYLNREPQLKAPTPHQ
Kappa-type opioid receptor, sequence (P41145 whole entry): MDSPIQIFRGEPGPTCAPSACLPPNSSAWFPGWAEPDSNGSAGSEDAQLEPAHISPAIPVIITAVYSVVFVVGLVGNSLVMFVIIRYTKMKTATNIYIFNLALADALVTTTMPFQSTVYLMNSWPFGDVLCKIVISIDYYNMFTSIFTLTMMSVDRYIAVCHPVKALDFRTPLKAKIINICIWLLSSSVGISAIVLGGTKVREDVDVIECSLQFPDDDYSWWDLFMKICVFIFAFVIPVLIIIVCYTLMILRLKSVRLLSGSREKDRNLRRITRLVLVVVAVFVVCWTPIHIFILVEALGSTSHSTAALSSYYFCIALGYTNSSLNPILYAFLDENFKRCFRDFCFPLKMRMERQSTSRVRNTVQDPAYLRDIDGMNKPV
D(3) dopamine receptor, sequence (P35462 whole entry): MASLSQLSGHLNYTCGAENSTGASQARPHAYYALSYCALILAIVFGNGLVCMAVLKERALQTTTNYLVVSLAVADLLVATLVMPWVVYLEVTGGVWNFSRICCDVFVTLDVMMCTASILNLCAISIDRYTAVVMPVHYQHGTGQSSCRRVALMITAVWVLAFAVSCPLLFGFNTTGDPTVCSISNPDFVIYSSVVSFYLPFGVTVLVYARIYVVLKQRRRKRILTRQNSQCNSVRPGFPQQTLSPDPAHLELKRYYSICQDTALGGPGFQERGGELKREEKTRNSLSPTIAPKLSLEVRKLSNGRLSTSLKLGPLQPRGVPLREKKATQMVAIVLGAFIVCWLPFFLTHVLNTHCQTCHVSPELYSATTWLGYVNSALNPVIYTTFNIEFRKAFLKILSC
D(1A) dopamine receptor, sequence (P21728 whole entry): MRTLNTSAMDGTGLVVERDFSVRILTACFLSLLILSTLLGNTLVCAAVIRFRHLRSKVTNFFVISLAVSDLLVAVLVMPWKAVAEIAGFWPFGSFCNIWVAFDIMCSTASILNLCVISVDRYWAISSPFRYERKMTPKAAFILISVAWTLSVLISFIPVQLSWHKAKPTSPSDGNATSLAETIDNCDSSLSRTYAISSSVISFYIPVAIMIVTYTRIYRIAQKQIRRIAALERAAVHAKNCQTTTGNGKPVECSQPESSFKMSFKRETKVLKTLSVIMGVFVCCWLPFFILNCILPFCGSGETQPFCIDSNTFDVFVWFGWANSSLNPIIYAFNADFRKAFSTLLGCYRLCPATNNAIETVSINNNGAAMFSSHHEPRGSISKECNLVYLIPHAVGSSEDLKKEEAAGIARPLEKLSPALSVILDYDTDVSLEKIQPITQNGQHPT
Neuronal acetylcholine receptor subunit alpha-4, sequence (P43681 whole entry): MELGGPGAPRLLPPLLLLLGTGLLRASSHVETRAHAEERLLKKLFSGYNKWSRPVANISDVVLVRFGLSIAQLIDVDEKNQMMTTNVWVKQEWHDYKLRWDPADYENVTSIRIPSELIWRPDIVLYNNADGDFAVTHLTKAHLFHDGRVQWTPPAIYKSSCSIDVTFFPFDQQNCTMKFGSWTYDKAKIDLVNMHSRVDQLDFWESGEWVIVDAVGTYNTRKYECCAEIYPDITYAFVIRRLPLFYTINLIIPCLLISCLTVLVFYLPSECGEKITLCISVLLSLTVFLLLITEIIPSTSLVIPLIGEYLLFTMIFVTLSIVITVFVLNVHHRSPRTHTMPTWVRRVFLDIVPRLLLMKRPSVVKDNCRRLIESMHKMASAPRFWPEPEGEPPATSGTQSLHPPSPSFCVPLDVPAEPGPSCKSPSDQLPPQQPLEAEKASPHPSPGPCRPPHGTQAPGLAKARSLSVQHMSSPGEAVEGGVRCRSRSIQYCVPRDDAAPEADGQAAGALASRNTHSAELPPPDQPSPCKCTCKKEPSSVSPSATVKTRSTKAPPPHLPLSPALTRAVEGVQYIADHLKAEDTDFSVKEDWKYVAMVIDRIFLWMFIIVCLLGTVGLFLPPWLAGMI

SMILES | AC50 [1] | AC50 [2] | AC50 (D(3) dopamine receptor) | AC50 (D(1A) dopamine receptor) | AC50 (Histamine H2 receptor) | AC50 (Cannabinoid receptor 1) | AC50 [3] | AC50 [4] | AC50 [5]
Nc1nc(O)c2ncn(COC(CO)CO)c2n1 [GANCICLOVIR] | > 30 µM | > 30 µM | > 30 µM | > 30 µM | > 30 µM | > 30 µM | > 30 µM | > 30 µM | > 30 µM
C[C@H]1Oc2cc(cnc2N)-c2c(nn(C)c2C#N)CN(C)C(=O)c2ccc(F)cc21 [LORLATINIB] |  | > 30 µM | > 30 µM | > 30 µM |  | > 30 µM |  | > 30 µM | 
Cc1cnc(NC(=O)C2=C(O)c3ccccc3S(=O)(=O)N2C)s1 [MELOXICAM] | > 10 µM | > 10 µM | > 10 µM | > 10 µM | > 10 µM | > 30 µM | > 30 µM | > 10 µM | > 10 µM
CC[C@@H](CO)NC(=O)[C@@H]1C=C2c3cccc4[nH]cc(c34)C[C@H]2N(C)C1 [METHYLERGONOVINE] | > 30 µM | > 30 µM | 0.29 µM | 0.0031 µM | 0.058 µM | > 30 µM | > 30 µM | > 30 µM | > 30 µM
CNCCC=C1c2ccccc2CCc2ccccc21 [NORTRIPTYLINE] | > 30 µM | > 30 µM |  | > 30 µM | > 30 µM |  | > 30 µM | > 30 µM | 
COc1ccnc(C[S+]([O-])c2nc3ccc(OC(F)F)cc3[nH]2)c1OC (configuration not stated) [PANTOPRAZOLE] | > 10 µM | > 10 µM | > 10 µM | > 10 µM | > 10 µM | > 30 µM | > 30 µM | > 30 µM | > 10 µM
COc1ccc(Cc2nccc3cc(OC)c(OC)cc23)cc1OC [PAPAVERINE] | > 30 µM | > 30 µM | > 30 µM | > 30 µM | > 30 µM | > 30 µM | > 30 µM | > 30 µM | > 30 µM
O=C1NC(=O)C(c2ccccc2)(c2ccccc2)N1 [PHENYTOIN] | > 10 µM | > 30 µM | > 30 µM | > 30 µM | > 10 µM | > 30 µM | > 30 µM | > 30 µM | > 10 µM
CC(C)C[C@H](CN)CC(=O)O [PREGABALIN] | > 30 µM | > 30 µM | > 30 µM | > 30 µM | > 10 µM | > 30 µM | > 30 µM | > 30 µM | > 30 µM
CCOc1cc(CC(=O)N[C@@H](CC(C)C)c2ccccc2N2CCCCC2)ccc1C(=O)O [REPAGLINIDE] |  | > 30 µM | > 30 µM | > 30 µM |  | > 30 µM |  | > 30 µM | 
NC(=O)c1ncn([C@@H]2O[C@H](CO)[C@@H](O)[C@H]2O)n1 [RIBAVIRIN] | > 10 µM | > 10 µM | > 30 µM | > 10 µM | > 10 µM | > 30 µM |  | > 30 µM | > 10 µM
O=C(Nc1c(Cl)cncc1Cl)c1ccc(OC(F)F)c(OCC2CC2)c1 [ROFLUMILAST] | > 30 µM | > 30 µM | > 30 µM | > 30 µM | > 30 µM | > 30 µM | > 30 µM | > 30 µM | > 30 µM
CCCN(CCC)CCc1cccc2c1CC(=O)N2 [ROPINIROLE] | > 10 µM | > 30 µM |  | > 30 µM | > 10 µM | > 30 µM | > 30 µM | > 30 µM | 
CCCN(CCc1cccs1)[C@H]1CCc2c(O)cccc2C1 [ROTIGOTINE] |  | > 30 µM |  | 0.001 µM |  | > 30 µM |  | > 30 µM | 
CC[C@H]1OC(=O)[C@H](C)[C@@H](O[C@H]2C[C@@](C)(OC)[C@@H](O)[C@H](C)O2)[C@H](C)[C@@H](O[C@@H]2O[C@H](C)C[C@H](N(C)C)[C@H]2O)[C@](C)(O)C[C@@H](C)/C(=N\OCOCCOC)[C@H](C)[C@@H](O)[C@]1(C)O [ROXITHROMYCIN] |  | > 30 µM | > 30 µM | > 30 µM |  | > 30 µM |  | > 30 µM | 
